Assay results: patent publication US20150047066A1, “PLANT HAVING INCREASED RESISTANCE OR SUSCEPTIBILITY TO 4-HPPD INHIBITOR” (TOYAMA PREFECTURE, priority 2010, published 2015)

Assays:
[1] = tested on: rice recombinants (Kanto 239) having the target gene (AK065581) introduced therein; experiment: Triketone type 4-HPPD inhibitor resistance assay on rice recombinants (T1/T2 seeds, HIS1) on agar medium; format: in vivo
Method: (§1) For transformation of rice, a BBC susceptible rice cultivar Kanto 239 was used, and the method described in “Taniguchi et al., Plant Cell Rep., 2010, vol. 29, iss. 11, pp. 1287 to 1295” was performed with some modification. Specifically, first, sterilized mature seeds were sown on an N6D medium. After culturing at 30° C. for 7 days, the seeds were infected with Agrobacterium, and co-cultured in an acetosyringone (AS)-containing N6 medium (2N6-AS medium) under a dark condition at 25° C. for 3 days. Thereafter, the infected tissues were cultured in a carbenicillin-containing N6D medium for 4 to 6 weeks (18 hours day length) in the presence of 40 mg/L hygromycin (Hyg), and Hyg-tolerant calli were re-differentiated.
Rice recombinants (T1 and T2 generations) were produced and subjected to a resistance assay with triketone type 4-HPPD inhibitors, that is, mesotrione, tefuryltrione, tembotrione, and NTBC, using commercially-available reagents at concentrations to be described later.
Furthermore, recombinants were prepared by introducing the target gene into the BBC susceptible rice cultivar “Kanto 239” that would be whitened by an agar medium containing 0.1 μM BBC, and T1 seeds or T2 seeds were obtained. These were seeded on an agar medium containing 2 μM BBC, and the growth state of the recombinants was examined. […] Moreover, the seeds were seeded on an agar medium containing 1 μM mesotrione, 2.5 μM tefuryltrione, 0.5 μM tembotrione, or 1 μM NTBC, and the growth state of the recombinants was examined. FIGS. 12 to 15 show the obtained results.

[2] = tested on: BBC susceptible rice cultivar Kanto 239; experiment: BBC whitening of wildtype susceptible rice on agar medium; format: in vivo; conditions: Kanto 239 wildtype, agar medium containing 0.1 μM BBC
Method: Whether or not a protein encoded by a particular gene has an activity of providing a plant with resistance to a 4-HPPD inhibitor can be determined, for example, by introducing the gene into a plant, and assaying whether or not the plant thus produced is provided with the resistance as described in Examples later (see Example 2). Specifically, in a case of using A. thaliana (ecotype Columbia) that would be whitened by an agar medium containing 0.03 μM BBC, if a transformant produced by introducing the gene into A. thaliana can grow without being whitened in the presence of BBC at the above concentration, the protein encoded by the gene can be determined to have an activity of providing a plant with resistance to a 4-HPPD inhibitor. Moreover, in a case of using a BBC susceptible rice cultivar “Kanto 239” that would be whitened by an agar medium containing 0.1 μM BBC, if a transformant produced by introducing the gene into Kanto 239 can grow without being whitened in the presence of BBC at the above concentration, the protein encoded by the gene can be determined to have an activity of providing a plant with resistance to a 4-HPPD inhibitor. […]

[3] = tested on: Momiroman, Takanari, Kasalath; experiment: BBC susceptibility level of susceptible rice cultivars; format: in vivo; conditions: Momiroman and Takanari in comparison with Kasalath
[4] = tested on: Tos17-inserted lines of Nipponbare; experiment: Linkage analysis of BBC susceptibility in Tos17-inserted lines; format: in vivo, rice; conditions: all progenies of six Tos17-inserted homozygous individuals
Source text: A retrotransposon Tos17 discovered in rice is activated by tissue culture, and its copies are transposed into a genome. It is known that when the transposition site is inside a gene, the gene is to be disrupted, causing a mutation (see Hirochika et al., Proc. Natl. Acad. Sci. USA, 1996, vol. 93, pp. 7783 to 7788). The present Examples utilized a rice population having accumulated mutations caused by tissue culture utilizing the phenomenon (mutant panel, database name: Tos17 mutant panel database (http://tos.nias.affrc.go.jp/ to miyao/pub/tos17/)). From the Tos17 mutant panel database, two lines were selected, in each of which Tos17 was inserted in a transcription site of a hypothetical gene of an iron/ascorbate oxidoreductase gene, which was strongly suspected of being associated with BBC susceptibility located at a gene locus specified by the QTL analysis. Then, self-fertilized seeds obtained by planting 15 individuals of each of these two lines were used to examine phenotype (BBC susceptibility) and genotype (Tos17 insertion).
Although the original cultivar “Nipponbare” of the Tos17-inserted lines is a BBC resistant cultivar, BBC susceptible individuals are derived from the lines having Tos17 inserted in the transcription site of the target gene. […]

[5] = tested on: rice recombinants (Kanto 239) having the homologous gene (HSL1; AK241948) introduced therein; experiment: BBC resistance assay on rice recombinants having the HSL1 gene (AK241948) on agar medium; format: in vivo; conditions: agar medium containing 0.12 μM BBC
Method: as §1
Specifically, recombinants were prepared by introducing the target gene into the BBC susceptible rice cultivar “Kanto 239” that would be whitened by an agar medium containing 0.1 μM BBC, and T1 seeds or T2 seeds were obtained. These were seeded on an agar medium containing 0.12 μM BBC, and the growth state of the recombinants was examined.

[6] = tested on: A. thaliana recombinants having the target gene introduced therein; experiment: BBC resistance assay on A. thaliana recombinants (T2) having the target gene (AK065581, HIS1) introduced; format: in vivo, Arabidopsis thaliana; conditions: HIS1 recombinants T2 generation, agar medium containing 0.03 μM BBC
Method: For transformation of A. thaliana, ecotype “Columbia” was used, and a Floral dip method was performed (see Weigel and Glazebrook, Arabidopsis, a laboratory manual, Cold Spring Harbor Laboratory Press (2002) p131-132). Specifically, first, Agrobacterium was shake-cultured in a liquid medium (LB or YEB) containing an antibiotic. Approximately 16 hours later, 2 ml of the culture solution was added to a liquid medium (LB or YEB) containing an antibiotic, and further shake-cultured. Then, the culture solution obtained approximately 16 hours thereafter was centrifuged at 8000 rpm at 4° C. for 10 minutes. The supernatant liquid was discarded, and the resulting precipitate was suspended in 500 ml of a solution containing 5% sucrose. Subsequently, immediately before the transformation, a transformation reagent silwet (registered trademark: SILWET L-77, product number: BMS-SL7755, manufactured by Bio Medical Science Inc.) was added thereto at a final concentration of 0.025%. Then, into the Agrobacterium suspension thus obtained, Arabidopsis from which already flowered and pollinated buds had been removed was dipped for 30 to 120 seconds. Thereafter, the plants were left standing for 16 hours and then grown to obtain the seeds. […]

[7] = tested on: A. thaliana (ecotype Columbia); experiment: BBC whitening of wildtype A. thaliana on agar medium; format: in vivo, Arabidopsis thaliana; conditions: agar medium containing 0.03 μM BBC
Method: Whether or not a protein encoded by a particular gene has an activity of providing a plant with resistance to a 4-HPPD inhibitor can be determined, for example, by introducing the gene into a plant, and assaying whether or not the plant thus produced is provided with the resistance as described in Examples later (see Example 2). Specifically, in a case of using A. thaliana (ecotype Columbia) that would be whitened by an agar medium containing 0.03 μM BBC, if a transformant produced by introducing the gene into A. thaliana can grow without being whitened in the presence of BBC at the above concentration, the protein encoded by the gene can be determined to have an activity of providing a plant with resistance to a 4-HPPD inhibitor. Moreover, in a case of using a BBC susceptible rice cultivar “Kanto 239” that would be whitened by an agar medium containing 0.1 μM BBC, if a transformant produced by introducing the gene into Kanto 239 can grow without being whitened in the presence of BBC at the above concentration, the protein encoded by the gene can be determined to have an activity of providing a plant with resistance to a 4-HPPD inhibitor.

KHSL04 = experiment: BBC susceptibility of Koshihikari/Habataki chromosome segment substitution lines (QTL analysis); format: in vivo, rice; conditions: KHSL04, short arm region of chromosome 2 substituted with Habataki type
Method: A Koshihikari/Habataki chromosome segment substitution line and Tachisugata//Tachisugata/Momiroman BC1F4 were tested. Specifically, Koshihikari/Habataki chromosome segment substitution lines (KHSL) were analyzed, in which a portion of chromosome fragments of a resistant cultivar Koshihikari serving as the genetic background was substituted with a chromosome of an indica type susceptible cultivar Habataki. Note that KHSL consists of 32 lines, and enables analysis on all of the whole 12 chromosomes of Habataki (as to KHSL, see Kazumasa Murata et al., “Development and evaluation of CSSLs carrying overlapping chromosome segments of rice cultivar Habataki in a genetic background of cultivar Koshihikari, ” Breeding Research, Mar. 27, 2009, vol. 11, supplement issue 1, p. 66). In addition, 94 BC1F4 lines obtained by one-time backcrossing of a resistant cultivar Tachisugata to a susceptible cultivar Momiroman were analyzed using 80 SSR markers (as to the SSR markers used, see “Development and mapping of 2240 new SSR markers for rice (Oryza sativa L.)”, DNA Res, 2002, vol. 9, iss. 6, pp. 199 to 207, and http://www.gramene.org/).
Accordingly, the QTL analysis was performed as described above on the Koshihikari/Habataki chromosome segment substitution lines (KHSL) using the BBC resistant rice cultivar “Koshihikari” and the susceptible rice cultivar “Habataki”.

[8] = tested on: BBC resistant cultivar Nipponbare; experiment: BBC whitening of resistant rice cultivar on agar medium; format: in vivo
[9] = tested on: tomato cultivar Micro-Tom; experiment: Germination of tomato seeds on BBC agar medium; format: in vivo; conditions: Micro-Tom seeds germinated on agar medium containing 0.3 μM BBC, 25° C., approximately 2 weeks
Method: For transformation of tomatoes, a cultivar “Micro-Tom” was tested, and an Agrobacterium method was performed using vectors (35SHIS1pZK3, 35SHSL1pZK3) shown in FIGS. 5 and 7. Note that when seeds of the original cultivar Micro-Tom were germinated on an agar medium containing 0.3 μM benzobicyclon (BBC) using an incubator at 25° C., it was clearly observed approximately 2 weeks later that leaf parts thereof were whitened.

[10] = tested on: rice recombinants (Kanto 239) having the target gene (AK065581) introduced therein; experiment: BBC resistance assay on rice recombinants (T0, HIS1) in composted soil; format: in vivo; conditions: HIS1 recombinants T0 generation, composted soil treated with BBC at 300 ga.i./ha
Method: as §1
Further, recombinants (TO generation) were prepared by introducing the target gene into the BBC susceptible rice cultivar “Kanto 239” that would be whitened by an agar medium containing 0.1 μM BBC, and the growth state of the recombinants was examined in composted soil treated with BBC at 300 ga.i./ha.

CS(=O)(=O)c1ccc(C(=O)C2C(=O)CCCC2=O)c([N+](=O)[O-])c1 [mesotrione]
growth state of the recombinants ([1]; agar medium treated with 1 μM mesotrione): grew without being whitened

O=C1CCCC(=O)C1C(=O)c1ccc(C(F)(F)F)cc1[N+](=O)[O-] [NTBC, 2-(2-nitro-4-trifluoromethylbenzoyl)cyclohexane-1,3-dione]
growth state of the recombinants ([1]; agar medium treated with 1 μM NTBC): grew without being whitened

CS(=O)(=O)c1ccc(C(=O)C2C(=O)CCCC2=O)c(Cl)c1COCC1CCCO1 (stereo not shown) [tefuryltrione]
growth state of the recombinants ([1]; agar medium treated with 2.5 μM tefuryltrione): grew without being whitened

CS(=O)(=O)c1ccc(C(=O)C2=C(Sc3ccccc3)C3CCC(C3)C2=O)c(Cl)c1 (stereo not shown) [BBC, benzobicyclon]
whitening of the plant [2]: whitened | degree of BBC susceptibility [3]: high BBC susceptibility | phenotype (BBC susceptibility) [4]: showed BBC susceptibility | growth state of the recombinants [5]: grew without being whitened | growth state of the recombinants [6]: grew without being whitened | whitening of the plant [7]: whitened | growth state of the recombinants ([1]; agar medium treated with 2 μM BBC): grew without being whitened | BBC susceptibility (KHSL04): showed susceptibility | whitening of the plant ([8]; 0.12 μM BBC): not whitened | whitening of the plant ([8]; agar medium 2 μM BBC): sufficient to whiten | whitening of leaf parts [9]: whitened | growth state of the recombinants [10]: grew without being whitened

CS(=O)(=O)c1ccc(C(=O)C2C(=O)CCCC2=O)c(Cl)c1COCC(F)(F)F [tembotrione]
growth state of the recombinants ([1]; agar medium treated with 0.5 μM tembotrione): grew without being whitened
